Assay results from BindingDB's records for doi:10.1021/jm0204587 (University of Pennsylvania, 2003).

These molecules were tested against T1, Dimer of Gag-Pol polyprotein [501-599] (Human immunodeficiency virus 1, UniProt P03367) (assay: Protease Inhibition Assay). Details: pH 5.5; 30 °C.
T1 construct: 501-599
Procedure: All enzyme assays were performed under initial velocity and steady-state conditions. The conditions for the enzyme catalyzed hydrolysis of the cleavage site peptide VSQN-(beta-naphthylalanine)-PIV were established with respect to time and enzyme concentration to yield linear initial velocity data. […] The detection of product was monitored with fluorescence (excitation 270 nm, emission 330 nm).
In the case of O=C(N[C@@H](Cc1ccccc1)[C@@H](O)C[C@]1(Cc2ccccc2)N=CC(C2c3ccccc3C[C@H]2O)C1=O)O[C@H]1CCOC1 (stereo partly drawn) [(3S)-oxolan-3-yl N-[(2S,3S)-4-[(2S)-2-benzyl-4-[(2R)-2-hydroxy-2,3-dihydro-1H-inden-1-yl]-3-oxo-2,3-dihydro-1H-pyrrol-2-yl]-3-hydroxy-1-phenylbutan-2-yl]carbamate], the IC50 is reported as 2 nM.
In the case of CC(C)C[C@@]1(C2C=N[C@@](Cc3ccccc3)(C[C@H](O)[C@H](Cc3ccccc3)NC(=O)OC(C)(C)C)C2=O)N=CC([C@@H](Cc2ccccc2)C(N)=O)C1=O (some centres not stated) [Pyrrolinone deriv. 1], the IC50 is reported as 10 nM.
CC(C)(C)OC(=O)N[C@@H](Cc1ccccc1)[C@@H](O)C[C@]1(Cc2ccccc2)N=CC(C2c3ccccc3C[C@H]2O)C1=O (some centres not stated) [Pyrrolinone deriv. 6] was tested, and the IC50 was 11.9 nM.
Work on O=C(N[C@@H](Cc1ccccc1)[C@@H](O)C[C@@H](Cc1ccccc1)C(=O)NC1c2ccccc2C[C@H]1O)O[C@H]1CCOC1 (stereo partly drawn) [(3S)-oxolan-3-yl N-[(2S,3S,5R)-5-benzyl-3-hydroxy-5-{[(2R)-2-hydroxy-2,3-dihydro-1H-inden-1-yl]carbamoyl}-1-phenylpentan-2-yl]carbamate] yielded an IC50 of 0.03 nM.
With CC(C)C[C@@]1(C2C=N[C@@](Cc3ccccc3)(C[C@H](O)[C@H](Cc3ccccc3)NC(=O)O[C@H]3CCOC3)C2=O)N=CC([C@@H](Cc2ccccc2)C(N)=O)C1=O (some centres not stated) [Pyrrolinone deriv. 2] the IC50 was 1.3 nM.
In the case of CC(C)C[C@H](NC(=O)[C@H](Cc1ccccc1)C[C@H](O)[C@H](Cc1ccccc1)NC(=O)OC(C)(C)C)C(=O)N[C@@H](Cc1ccccc1)C(N)=O [Hydroxyethylene dipeptide isostere], the IC50 is reported as 0.6 nM.
CC(C)(C)OC(=O)N[C@@H](Cc1ccccc1)[C@@H](O)C[C@@H](Cc1ccccc1)C(=O)NC1c2ccccc2C[C@H]1O (stereo partly drawn) [tert-butyl N-[(2S,3S,5R)-5-benzyl-3-hydroxy-5-{[(2R)-2-hydroxy-2,3-dihydro-1H-inden-1-yl]carbamoyl}-1-phenylpentan-2-yl]carbamate] gave an IC50 of 0.3 nM.
